Experimental findings from paper PMC8067766 (International Journal of Molecular Sciences, 2021) are described below.

Series [1] can be described thus: Thioflavin T fluorescence assay. In kind it is physicochemical. Conditions: 1.0 mg/mL in PBS pH 7.4, 37 °C, orbital shaking; ThT excitation 420 nm, emission 482 nm. Here is the method: (§1) All peptides were dissolved in Eppendorf Low Retention Tubes in 1.0 mL of PBS pH 7.4. The concentration of the solutions of peptides was 1.0 mg/mL. The peptides were incubated at 37 °C with constant orbital shaking. Aliquots for the evaluation of the fibrillization process were taken before incubation and after 1, 2, 3, 6, 14, and 21 days or only after 7 days, depending on the experiments.
Ten microliters of peptide solution incubated under fibrillization conditions (see Fibril preparation) were mixed with 10 µL of 1.5 mM ThT in water and 90 µL of PBS pH 7.4. The fluorescence was measured on a Tecan Infinite 200Pro (Tecan Group Ltd., Männedorf, Switzerland) spectrofluorometer in 96-well plates (Costar Black®), with excitation wavelength set at 420 nm and emission in the range of 455 to 600 nm.

In another series the test system is HaCaT keratinocytes. Briefly: XTT proliferation assay, keratinocytes. In kind it is cell-based, human. Conditions: for increase in proliferation by fibrils compared to control (XTT): fibrillated form, 10 µL of fibrils (50 µg/mL), 48 h, not statistically significant; for stimulation of proliferation (XTT), in words / inhibition of proliferation (XTT), in words: non-fibrillated peptide, 48 and 72 h; for inhibition of proliferation (XTT), in words: up to 25 µg/mL. The protocol:
Immortalized human HaCaT [69, 70] keratinocytes (DKFZ, Heidelberg, Germany) and the human dermal fibroblast cell line 46BR.1N (ECACC, Sigma Aldrich, St. Louis, MO, USA) were used in the study. Cells were routinely grown in culture flasks (growth surface area 25 cm^2) in Dulbecco’s modified Eagle medium (DMEM, Sigma Aldrich, St. Louis, MO, USA), with 4500 mg/L of glucose, 584 mg/L of L-glutamine, sodium pyruvate, and sodium bicarbonate, supplemented with 10% FBS and 100 units/mL of penicillin and 100 μg/mL of streptomycin (Sigma Aldrich, St. Louis, MO, USA), under a humidified atmosphere with 5% CO2 at 37 °C. Medium was changed every 2–3 days.
Lactate dehydrogenase (LDH) activity in cell culture supernatants (Takara, Japan, cat. No. MK401) was measured to determine the cytotoxicity of the tested compounds, and the XTT assay was used to evaluate their effect on cell proliferation. Both tests were performed as previously described according to manufacturers’ instructions. Briefly, cells were seeded into 96-well plates, at a density of 5000 cells per well, in DMEM supplemented with 10% FBS. After 24 h the medium was exchanged for serum-free DMEM containing appropriate concentrations of the tested compounds. Supernatants for LDH analysis were collected after 48 h of incubation. The XTT assay was performed after 48 and 72 h of incubation.
For the analysis of the effect of the peptide fibrils on skin cells, the experiment was performed as described, but the cells were stimulated with 10 µL of the fibrils (50 µg/mL) and incubated for 48 h, when the LDH and XTT assay were then performed.

The subject of a further series is 46BR.1N fibroblasts. Nature of the series: Collagen synthesis analysis (Direct red 80). In kind it is cell-based, human. Conditions: 25.0 µg/mL; 6 days; Direct red 80, 550 nm, percentage of control. The protocol:
46BR.1N fibroblasts were seeded into 96-well plates, at a density of 3000 cells per well, in DMEM medium supplemented with 10% FBS. After 24 h, when the cells had attached to the plate, the medium was exchanged for a fresh one, and the cells were stimulated with appropriate concentrations of the tested peptides. Half of the medium was exchanged every two days, with additional stimulation during every medium exchange, and the cells were cultured in the presence of the peptides for six days. The medium was then removed and the cells were washed with PBS, fixed for 1 h in Bouin’s fluid (15 mL of saturated picric acid, 5 mL of 37% formaldehyde and 1 mL of acetic acid), washed in running tap water for 15 min and air dried. The cells were stained for 1 h with Direct red 80 (Sigma Aldrich, St. Louis, MO, USA) dissolved in saturated aqueous picric acid solution at a concentration of 1 mg/mL, while gently shaking the plate on a microplate shaker. The dye was removed and the cells were washed with a 0.01 M hydrochloric acid solution to remove unbound dye. The cells were photographed with a light microscope. The dye was then dissolved in 0.1 M sodium hydroxide for 30 min by shaking the plate on a microplate shaker at room temperature. The solution was transferred to a new plate and a spectrophotometric analysis was performed at 550 nm, using 0.1 N sodium hydroxide as a blank. […]

For series [2], the system named is dorsal skin wounds. Nature of the series: Wound healing in a dorsal skin excision model in mice. In kind it is in vivo, BALB/c female mice. From the text: Eight-week-old BALB/c female mice were used for experiments. All experimental procedures were approved by the Local Ethics Committee in Bydgoszcz (Approval No. 49/2016). The mice were anesthetized with inhaled 2–5% isoflurane. The skin on the back was shaved and disinfected. The skin was folded and raised cranially and caudally along the spine. The mouse was then placed in a lateral position, and the folded skin was pierced with a 6.0 mm diameter biopsy punch, resulting in the formation of two excisional, symmetrical wounds on the back of the mouse. Before peptides administration, mice were randomly divided into treatment and control groups comprising six individuals. A total of 10 µL of 1 mg/mL peptide solution suspended in saline or fibrils solution suspended in PBS at the same concentration, was applied to each wound. Control groups received saline only. The wounds were covered with transparent Tegaderm film and an adhesive plaster was wrapped around the mouse torso. During the first week of the experiment, the wounds were treated with the peptide daily for five consecutive days along with replacement of the dressing. During the second week of the experiment, the dressing was replaced every other day with no further stimulation. For fibrils the solution was administered once after wounding and the dressing was replaced every two days. At the beginning of the third week, the dressing was removed. To measure the wound area, a ruler was placed next to the injury site, and the wound was photographed. Wound areas were calculated using ImageJ software.

Series [3] deals with dorsal skin wounds. Nature of the series: Histological analysis of healed skin (Masson's trichrome). In kind it is in vivo, BALB/c female mice. To be noted: skin sampled day 18 after injury. Here is the method: Mice were euthanized on day 18 after the injury. Skin from their backs was sampled and stored in formalin. Samples were then embedded in paraffin, cut into 5 µm sections and stained with Masson’s trichrome staining (light green for control and FC-GHK samples and aniline blue for the FC peptide and both fibrillated peptides). Stained sections were evaluated using a light microscope.

A short description of series [4]: Transmission electron microscopy of fibrils. In kind it is physicochemical. Conditions: 1.0 mg/mL in PBS pH 7.4, TEM, uranyl acetate stain. The protocol:
as §1
Peptide samples (5 µL) were applied on a glow-discharged carbon-coated copper grid (400 mesh). After 1 min of adsorption, excess liquid was removed using filter paper, and the samples were stained with 2% (v/v) aqueous uranyl acetate. The samples were examined with a TECNAI SPIRIT BIO TWIN FEI (FEI Company, Hillsboro, OR, USA) at 120 kV, with nominal magnifications between 11,500 and 39,000. The assay was performed for samples before (after dissolution) and after 3 days of incubation.

[5] abbreviates: non-fibrillated peptide, 1 mg/mL in saline, five daily applications.

Where a SMILES comes first, the peptide text is derived from it.

Turning to `CC[C@H](C)[C@H](NC(=O)CNC(=O)[C@H](C)NC(=O)[C@H](CCC(N)=O)NC(=O)CNC(=O)CNC(=O)CNC(=O)[C@@H](NC(=O)[C@@H]1CCCN1C(=O)[C@H](C)NC(=O)[C@H](C)NC(=O)CNC(=O)CNC(=O)CNC(=O)[C@H](CCCCN)NC(=O)[C@H](Cc1c[nH]cn1)NC(=O)CNC(C)=O)C(C)C)C(=O)N[C@H](C(=O)N[C@H](C(N)=O)C(C)C)C(C)C` [FC-GHK] (Ac-GHKGGGAAPVGGGQAGIVV-NH2), in series [1], the “time course of ThT fluorescence increase (fibrillization)” value was “effective sample fibrilization during the first two days of incubation”. In addition, in the series on HaCaT keratinocytes, the “increase in proliferation by fibrils compared to control (XTT)” value is “about 10%”; the “stimulation of proliferation (XTT), in words” value is “stimulated proliferation of both tested cell lines at concentrations of 0.01–10 µg/L”; the “inhibition of proliferation (XTT), in words” value is reported as “slight inhibition of the proliferation of skin cells after 72 h stimulation”. Also, the “increase in collagen synthesis” value with 46BR.1N fibroblasts is on record as 30%. Also, the “wound closure rate compared to control” value with dorsal skin wounds [2] (fibrillated peptide, 10 µL of 1 mg/mL in PBS per wound, administered once, n = 16 wounds) is given as “the difference in wound closure rate could be observed on day 4 post-injury without statistical significance”. Moreover, in the series with dorsal skin wounds [2] (setting [5]), the “wound closure and scars of FC-GHK compared with FC and control” value was “faster wound closure than for the FC peptide and significantly smaller scars compared to the control group”; the “wound epithelialization compared with the control” value is “increased epithelialization on the second day”; the “wound state on day 14 post-injury” value is reported as “closed entirely”. The “wound closure compared to the control group” value in the series on dorsal skin wounds [2] (non-fibrillated peptide, 10 µL of 1 mg/mL in saline per wound, five daily applications, n = 12 wounds) is “significantly and consistently accelerated from day 2 till day 14”. In the series with dorsal skin wounds [3] (fibrillated peptide), the “muscle cell growth in wound area (histology)” value was “No such cell growth was present”. For the same molecule, the “muscle cell layer in restored tissue (histology)” value with dorsal skin wounds [3] (non-fibrillated peptide) was “modest reconstruction of the muscle cell layer”.

For the molecule `CC[C@H](C)[C@H](NC(=O)CNC(=O)[C@H](C)NC(=O)[C@H](CCC(N)=O)NC(=O)CNC(=O)CNC(=O)CNC(=O)[C@@H](NC(=O)[C@@H]1CCCN1C(=O)[C@H](C)NC(=O)[C@H](C)NC(=O)CNC(=O)CNC(=O)CNC(=O)[C@H](CCCCN)NC(=O)[C@H](Cc1c[nH]cn1)NC(=O)CNC(=O)[C@H](CCCCN)NC(C)=O)C(C)C)C(=O)N[C@H](C(=O)N[C@H](C(N)=O)C(C)C)C(C)C` [FC-KGHK] (Ac-KGHKGGGAAPVGGGQAGIVV-NH2), in series [4], the “fibril thickness (TEM)” value is given as 10–12 nm. Also, the “time course of ThT fluorescence increase (fibrillization)” value in series [1] was “required at least three days of incubation”. Also, in the series with HaCaT keratinocytes, the “increase in proliferation by fibrils compared to control (XTT)” value is recorded as “about 10%”; the “stimulation of proliferation (XTT), in words” value is “most potent stimulation was observed at concentrations of 1.0 µg/mL after 48 h and 0.1 µg/mL after 72 h incubation”; the “inhibition of proliferation (XTT), in words” value is given as “did not inhibit the proliferation of skin cells”. Also, in the series on 46BR.1N fibroblasts, the “increase in collagen synthesis” value turned out to be 40%.
